Earlier results on 1 molecule are cited in patent US20010004459A1, “Composition with sustained release of active principle, capable of forming a microemulsion” (priority 1998, published 2001).

For the data set the following is noted: acidic pH (dissolution curve at pH 1.2, FIG. 2).

For `COc1ccc2c(c1)c(CC(=O)O)c(C)n2C(=O)c1ccc(Cl)cc1` [indomethacin, Indomethacin], the “solubility at acidic pH” value is given as “insoluble”.
